According to the Deep4Chem optical property database:
Each block holds one compound with its values, some of them ahead of it.

Assay: photoluminescence quantum yield (fraction); solvent given as SMILES
[1] = in O=P(c1ccccc1)(c1ccccc1)c1ccccc1Oc1ccccc1P(=O)(c1ccccc1)c1ccccc1

SMILES: CN(C)c1ccc(/C=C/C=C/c2ccc(C#N)cc2)cc1
photoluminescence quantum yield (in C1CCOC1): 0.098
photoluminescence quantum yield (in CC#N): 0.223
photoluminescence quantum yield (in CCCC#N): 0.125
photoluminescence quantum yield (in CCCCCC): 0.059
photoluminescence quantum yield (in CCCCOCCCC): 0.068
photoluminescence quantum yield (in CCO): 0.187
photoluminescence quantum yield (in CCOCC): 0.085

photoluminescence quantum yield (in CC#N): 0.24
photoluminescence quantum yield (in CCCCCC): 0.17
SMILES: CCN(CC)c1ccc(-n2c(C)ccc2C)cc1

photoluminescence quantum yield (in CC#N): 0.27
SMILES: Cc1ccc(-c2ccc(/C=C/c3ccc(C#N)cc3)cn2)nc1

SMILES: CC(C)(C)c1ccc2c(c1)sc1[n+]2[B-](F)(F)n2c(c3cccc4cccc2c43)=C1C#N
photoluminescence quantum yield (in C1CCOC1): 0.67
photoluminescence quantum yield (in CC#N): 0.74
photoluminescence quantum yield (in CCCCCC): 0.68
photoluminescence quantum yield (in Cc1ccccc1): 0.69
photoluminescence quantum yield (in ClCCl): 0.7

SMILES: CC1(C)c2ccccc2-n2c(-c3ccc(-n4c5ccccc5c5ccccc54)cc3)nc3cccc1c32
photoluminescence quantum yield (in Cc1ccccc1): 0.99
photoluminescence quantum yield [1]: 0.85

photoluminescence quantum yield (in C1CCCCC1): 1
SMILES: CCCC1(CCC)c2cc(-c3ccc(C(C)(C)C)cc3)ccc2-c2ccc(-c3ccc4c(c3)C(CCC)(CCC)c3cc(-c5ccc6c(c5)C(CCC)(CCC)c5cc(-c7ccc8c(c7)C(CCC)(CCC)c7cc(-c9ccc(C(C)(C)C)cc9)ccc7-8)ccc5-6)ccc3-4)cc21

SMILES: COc1ccc(-c2nnc(-c3cc(-c4nnc(-c5ccc(OC)cc5)o4)c(-n4c5ccccc5c5ccccc54)cc3-n3c4ccccc4c4ccccc43)o2)cc1
photoluminescence quantum yield (in Cc1ccccc1): 0.133
photoluminescence quantum yield [1]: 0.354

SMILES: COc1ccc(N(c2ccc(C=C(c3ccccc3)c3ccccc3)cc2)c2ccc(C=C(c3ccccc3)c3ccccc3)cc2)cc1
photoluminescence quantum yield (in Cc1ccccc1): 0.06

SMILES: F[B-]1(F)Oc2ccccc2-c2nc(-c3ccccc3)c3ccccc3[n+]21
photoluminescence quantum yield (in Cc1ccccc1): 0.013

photoluminescence quantum yield (in CC#N): 0.1
photoluminescence quantum yield (in CCO): 0.04
photoluminescence quantum yield (in ClCCl): 0.13
photoluminescence quantum yield (in O): 0.006
SMILES: C=CCNc1ccc2ccc3oc4cc(=[N+]5CCCC5)ccc-4nc3c2c1

photoluminescence quantum yield (in CCCCCC): 0.43
photoluminescence quantum yield (in CO): 0.54
photoluminescence quantum yield (in ClCCl): 0.34
SMILES: CC(C)(C)c1ccc2ccc3c(C(C)(C)C)ccc4ccc1c2c43

photoluminescence quantum yield (in CN(C)C=O): 0.24
SMILES: c1ccc(CO[Si]23n4c5c6ccccc6c4/N=C4N=C(/N=c6/c7ccccc7c(n62)=c2c6ccccc6c(n23)=N5)c2ccccc2\4)cc1 (stereo not drawn)

photoluminescence quantum yield (in CCO): 0.15
photoluminescence quantum yield (in CO): 0.248
photoluminescence quantum yield (in O): 0.048
SMILES: Cc1cc(C)nc(N)n1

SMILES: Cc1ccc2c(c1)C(=O)c1ccncc1-2
photoluminescence quantum yield (in CC#N): 0.019
photoluminescence quantum yield (in CCCCCC): 0.0032
photoluminescence quantum yield (in CCOC(C)=O): 0.036
photoluminescence quantum yield (in Cc1ccccc1): 0.031
photoluminescence quantum yield (in ClCCl): 0.022

photoluminescence quantum yield (in ClCCl): 0.38
SMILES: CCN(CC)c1ccc2cc(-c3nc4cc(C(=O)Nc5ccccc5[N+](=O)[O-])ccc4o3)c(=O)oc2c1

SMILES: CC[N+]1(CC)CN2C(=N1)C(C(=O)O)=Cc1c(OC)ccc(OC)c12
photoluminescence quantum yield (in O): 0.018

photoluminescence quantum yield (in O): 0.011
SMILES: [NH3+]c1cc([NH3+])cc(-c2nc3ccccc3s2)c1

SMILES: c1ccc(-c2nc(-c3ccccc3)nc(-c3cc(-n4c5ccccc5c5ncccc54)c(-n4c5ccccc5c5ncccc54)c(-n4c5ccccc5c5ncccc54)c3)n2)cc1
photoluminescence quantum yield (in O=P(c1ccccc1)(c1ccccc1)c1ccc2oc3ccc(P(=O)(c4ccccc4)c4ccccc4)cc3c2c1): 0.54

photoluminescence quantum yield (in CO): 0.02
SMILES: Brc1cnc(-c2ccncc2)s1

photoluminescence quantum yield (in C1CCCCC1): 0.7
SMILES: Cc1cc(C)c(B2c3cc(C(C)(C)C)cc4c5ccccc5c5c6ccccc6c6cc(C(C)(C)C)cc2c6c5c34)c(C)c1

photoluminescence quantum yield (in CC#N): 0.33
photoluminescence quantum yield (in CCCCCC): 0.26
SMILES: COc1ccc(-n2cccc2)cc1

SMILES: O=c1c2ccccc2oc2cc(N3c4ccccc4C4(c5ccccc5Oc5ccccc54)c4ccccc43)ccc12
photoluminescence quantum yield (in Cc1ccccc1): 0.77

photoluminescence quantum yield (in CC1CCCO1): 0.35
SMILES: COc1c(-c2c(OC)c3cccc4ccc5oc(=O)cc2c5c43)c2cc(=O)oc3ccc4cccc1c4c32

photoluminescence quantum yield (in C1CCCCC1): 0.008
SMILES: Clc1cc(Cl)c([C](c2c(Cl)cc(Cl)cc2Cl)c2c(Cl)cc(Cl)cc2Cl)c(Cl)c1

photoluminescence quantum yield (in C1COCCO1): 0.57
SMILES: c1ccc(-c2nc(-c3nc(-c4ccccc4)c(-c4ccccc4)o3)oc2-c2ccccc2)cc1

photoluminescence quantum yield (in C1CCOC1): 0.67
SMILES: Cc1ccc(C2=C3C=C4C(=[N+]3[B-](F)(F)n3c2cc2c3-c3ccccc3C23c2ccccc2-c2ccccc23)c2ccccc2C42c3ccccc3-c3ccccc32)cc1

photoluminescence quantum yield (in ClCCl): 0.91
SMILES: COc1ccc(/C=C/c2nc(/C=C/c3ccc(N(c4ccccc4)c4ccccc4)cc3)cc(/C=C/c3ccc(N(c4ccccc4)c4ccccc4)cc3)n2)cc1

photoluminescence quantum yield (in CS(C)=O): 0.64
SMILES: Fc1ccccc1-c1nc2sc3ccccc3c2s1

photoluminescence quantum yield (in C1CCCCC1): 0.31
photoluminescence quantum yield (in CCOC(C)=O): 0.195
photoluminescence quantum yield (in CN(C)C=O): 0.013
photoluminescence quantum yield (in CO): 0.002
photoluminescence quantum yield (in ClCCl): 0.24
SMILES: CCN(CC)c1ccc2c(c1)oc(=O)c1cc3c(-c4ccccc4)nn(-c4ccccc4)c3nc12

photoluminescence quantum yield (in C1CCCCC1): 0.008
photoluminescence quantum yield (in CO): 0.004
SMILES: Cc1ccc(/C=C(\c2ccccc2)c2nc3ccccc3o2)cc1

photoluminescence quantum yield (in C1CCOC1): 0.5
photoluminescence quantum yield (in CC#N): 0.38
photoluminescence quantum yield (in CCO): 0.22
photoluminescence quantum yield (in CN(C)C=O): 0.27
photoluminescence quantum yield (in CO): 0.16
photoluminescence quantum yield (in CS(C)=O): 0.1
SMILES: CSc1sc(C(N)=O)c2nnn(C)c(=O)c12

photoluminescence quantum yield (in CCO): 0.87
SMILES: CC(C)(C)OC(=O)NCCCC(=O)OCc1ccc2c3cccc4cccc(c5cccc1c52)c43

photoluminescence quantum yield (in CC#N): 0.005
photoluminescence quantum yield (in ClCCl): 0.012
SMILES: CC(=O)Nc1cccc2c1C#Cc1c(cccc1C(=O)N(C)C)OCCCO2

photoluminescence quantum yield (in CC#N): 0.016
SMILES: Cc1ccc(C#Cc2ccc3ccc(=O)oc3c2)cc1

photoluminescence quantum yield (in CCO): 0.25
photoluminescence quantum yield (in ClCCl): 0.28
SMILES: O=Cc1cnc(-c2c3ccccc3cc3ccccc23)nc1

photoluminescence quantum yield (in CC#N): 0.36
photoluminescence quantum yield (in ClCCl): 0.25
SMILES: Cc1cc(-c2ccc(C(C)(C)C)cc2)cc(C)[o+]1

photoluminescence quantum yield (in CC#N): 0.24
SMILES: CC1=[N+]2C(=C(C3=CC4OCCOCCOCCOCCOC4C=C3)c3c4ccccc4c(/C=C/c4ccc(N(C)C)cc4)n3[B-]2(F)F)c2ccccc21 (stereo not drawn)

photoluminescence quantum yield (in CC#N): 0.08
photoluminescence quantum yield (in CCCCCC): 0.2
SMILES: Cc1cccc(C)c1Nc1ccc(/C=C/c2ccc3ccccc3c2)cc1

photoluminescence quantum yield (in CCCO): 0.89
SMILES: c1ccc2c(c1)[nH]c1c3ccccc3[nH]c21

SMILES: CN(C)c1ccc(C2=Cc3ccc4ccccc4[n+]3[B-](F)(F)O2)cc1
photoluminescence quantum yield (in C1CCOC1): 0.517
photoluminescence quantum yield (in C1COCCO1): 0.735
photoluminescence quantum yield (in CC1CCCCC1): 0.862
photoluminescence quantum yield (in CC#N): 0.296
photoluminescence quantum yield (in CCOC(C)=O): 0.614
photoluminescence quantum yield (in CCOCC): 0.747
photoluminescence quantum yield (in CN(C)C=O): 0.187
photoluminescence quantum yield (in CO): 0.308
photoluminescence quantum yield (in COC(C)=O): 0.374
photoluminescence quantum yield (in ClC(Cl)Cl): 0.86

photoluminescence quantum yield (in ClCCl): 0.65
SMILES: CCCCn1c2ccc(C#N)cc2c2cc(C#N)cc(-c3ccc(N(c4ccccc4)c4ccccc4)cc3)c21

photoluminescence quantum yield (in ClC(Cl)Cl): 0.09
SMILES: Cc1ccc(/C2=c3\cc/c(o3)=C(\c3ccc(C)cc3)c3ccc([nH]3)-c3ccc4n3[P-](=O)(=O)[N+]3=C(C=CC3=C4c3ccco3)c3ccc2[nH]3)cc1

photoluminescence quantum yield (in C1COCCO1): 0.61
SMILES: CCC12C(=C3C(=C4c5ccc(-c6ccc(C(C)=O)s6)cc5S(=O)(=O)C41CC)C(F)(F)C(F)(F)C3(F)F)c1ccc(-c3ccc(C(C)=O)s3)cc1S2(=O)=O (stereo not drawn)

SMILES: COC(=O)C1=NNC(C(=O)OC)=C2c3ccccc3C(=O)c3ccccc3C12 (stereo not drawn)
photoluminescence quantum yield (in CC#N): 0.32

photoluminescence quantum yield (in ClCCl): 0.22
SMILES: O=C1c2ccccc2-c2nc3c(F)c(F)c(F)c(F)c3n21
